Laboratory results as given in publication PMC4515084 (Chemmedchem, 2015).

Key:
[1] = molecular target: human CYP 3A4 (Homo sapiens, UniProt P08684); experiment: CYP inhibition assay, pooled human liver microsomes, midazolam substrate; assay type: in vitro ADME
[2] = molecular target: human CYP 2C9 (Homo sapiens, UniProt P11712); experiment: CYP inhibition assay, pooled human liver microsomes, diclofenac substrate; assay type: in vitro ADME
[3] = Solubility; assay type: physicochemical
[4] = Pharmacokinetic studies in rats
[5] = molecular target: porcine pancreatic elastase (PPE) (Sus scrofa, UniProt P00772); experiment: Serine protease selectivity: PPE; assay type: biochemical; conditions: listed as BAY 85-8501
Sequence of porcine pancreatic elastase (PPE) (P00772 27-266): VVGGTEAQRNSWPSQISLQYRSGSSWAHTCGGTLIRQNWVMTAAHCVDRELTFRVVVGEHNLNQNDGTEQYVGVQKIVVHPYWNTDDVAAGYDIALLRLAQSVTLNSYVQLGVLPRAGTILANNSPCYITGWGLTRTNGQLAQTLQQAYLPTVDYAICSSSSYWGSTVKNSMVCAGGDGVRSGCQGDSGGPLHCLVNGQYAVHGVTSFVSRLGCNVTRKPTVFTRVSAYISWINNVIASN

[6] = system: HNE-induced acute lung injury in mice; experiment: HNE-induced acute lung injury; assay type: in vivo, mouse; conditions: administered 1 h prior to the HNE noxa
[7] = system: PPE-induced acute lung injury in mice; experiment: PPE-induced acute lung injury; assay type: in vivo, mouse; conditions: PPE noxa

Sequence of human CYP 3A4 (P08684 whole entry): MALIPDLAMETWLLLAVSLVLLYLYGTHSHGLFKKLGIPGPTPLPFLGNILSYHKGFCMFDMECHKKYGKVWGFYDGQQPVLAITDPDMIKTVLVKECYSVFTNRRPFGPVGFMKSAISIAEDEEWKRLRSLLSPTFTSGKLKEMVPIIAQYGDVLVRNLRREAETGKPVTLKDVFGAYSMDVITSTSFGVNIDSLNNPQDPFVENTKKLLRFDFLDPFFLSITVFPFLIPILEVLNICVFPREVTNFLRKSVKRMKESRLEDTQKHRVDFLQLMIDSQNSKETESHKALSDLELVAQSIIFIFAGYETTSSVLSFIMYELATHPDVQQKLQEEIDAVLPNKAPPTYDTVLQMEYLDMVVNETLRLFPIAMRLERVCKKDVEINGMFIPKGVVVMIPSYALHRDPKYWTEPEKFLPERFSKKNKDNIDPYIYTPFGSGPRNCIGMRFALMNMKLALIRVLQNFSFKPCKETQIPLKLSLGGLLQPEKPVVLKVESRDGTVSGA
Sequence of human CYP 2C9 (P11712 whole entry): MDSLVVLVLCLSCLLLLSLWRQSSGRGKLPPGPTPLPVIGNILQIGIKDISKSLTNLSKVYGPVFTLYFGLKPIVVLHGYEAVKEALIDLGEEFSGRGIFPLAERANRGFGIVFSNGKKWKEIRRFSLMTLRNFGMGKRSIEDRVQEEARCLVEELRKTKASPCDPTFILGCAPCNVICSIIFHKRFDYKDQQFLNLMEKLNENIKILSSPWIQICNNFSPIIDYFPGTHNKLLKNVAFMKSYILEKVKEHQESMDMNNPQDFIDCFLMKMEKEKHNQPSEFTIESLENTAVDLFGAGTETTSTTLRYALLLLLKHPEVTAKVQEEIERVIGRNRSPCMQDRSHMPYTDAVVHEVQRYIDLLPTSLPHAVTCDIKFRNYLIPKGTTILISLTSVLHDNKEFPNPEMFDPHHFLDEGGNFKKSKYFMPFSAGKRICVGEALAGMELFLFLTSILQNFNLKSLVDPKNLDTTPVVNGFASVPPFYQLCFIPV

SMILES: CC1=C(C#N)[C@@H](c2ccc(C#N)cc2)N(CC(N)=O)C(=O)N1c1cccc(C(F)(F)F)c1 [Compound 23]
- inhibition toward CYP 3A4 ([1]; up to a concentration of 50 μM): no observable inhibition
- inhibition toward CYP 2C9 ([2]; up to a concentration of 50 μM): no observable inhibition

SMILES: CC1=C(C#N)[C@@H](c2ccc(C#N)cc2S(C)(=N)=O)N(C)C(=O)N1c1cccc(C(F)(F)F)c1 (stereo partly shown) [Compound 30]
- solubility [3]: improved solubility
- IC50 [1]: > 50 µM
- IC50 [2]: > 50 µM

SMILES: CC1=C(C(=O)OCCO)[C@@H](c2ccc(C#N)cc2)NC(=O)N1c1cccc(C(F)(F)F)c1 [Compound 17]
- clearance ([4]; rat, in vivo, iv, 0.3 mg kg^−1): 2.1 L/h/kg
- clearance ([4]; rodents / rats): medium clearance

SMILES: CC1=C(C#N)[C@@H](c2ccc(C#N)cc2S(C)(=O)=O)N(C)C(=O)N1c1cccc(C(F)(F)F)c1 [Compound 29, (4S)-4-[4-Cyano-2-(methylsulfonyl)phenyl]-3,6-dimethyl-2-oxo-1-[3-(trifluoromethyl)phenyl]-1,2,3,4-tetrahydropyrimidine-5-carbonitrile]
- clearance ([4]; rat, in vivo, iv, 0.3 mg kg^−1): 0.5 L/h/kg
- effect on PPE [5]: no inhibitory effect
- development of lung injury and subsequent inflammation [6]: completely prevented
- primary lung injury [7]: could not prevent

SMILES: CC(=O)C1=C(C)N(c2cccc(C(F)(F)F)c2)C(=O)N[C@@H]1c1ccc(C#N)nc1 [Compound 20]
- clearance ([4]; rat, in vivo, iv, 0.3 mg kg^−1): 2 L/h/kg
- clearance ([4]; rodents / rats): medium clearance
